Experimental data published in patent US10662159B2, “ABHD6 and dual ABHD6/MGL inhibitors and their uses” (MAKScientific, LLC, priority 2017, dated 2020).

What was measured:
Assay type in all cases: biochemical
hABHD6 = hABHD6 (Homo sapiens (Human), UniProt Q9BV23); experiment: Fluorescent assay for hABHD6 (AHMMCE substrate hydrolysis); details: membrane fraction containing full-length hABHD6, 20 μM AHMMCE; read-out: ABHD6 Inhibition IC50
Description: (§1) Certain compounds were tested for their ABHD6 and dual ABHD6/MGL inhibitory activity, which is expressed as % of inhibition or IC50 values in Table 1. The percentage of inhibition describes the percentage by which the inhibitor reduces the velocity/rate of 2-AG hydrolysis by ABHD6, and MGL or AEA hydrolysis by FAAH. […] The lower the IC50 values, the higher its inhibitory activity. A detailed description of the methods used to test inhibitory activity of compounds is given below.
Fluorescent Assays Protocol for hABHD6
Initial Fluorescent Inhibition Assay (3-Point)—
In each well of a 96-well plate 8 μL of membrane fraction containing full-length hABHD6 (1 μg total protein) was mixed with 168 μL of assay buffer (50 mM Tris-HCl, pH 7.6), and 20 μL of diluted compound (diluted in a dilution buffer consisting of 50% DMSO/50% assay buffer v/v). Each plate was incubated at RT for 15 minutes before adding 4 μL of 1 mM AHMMCE substrate (final concentration of 20 μM AHMMCE and final volume of 200 μL). The reaction was allowed to proceed for 1 hr at RT before the fluorescence was read at λex 360 nm and λem 460 nm and the inhibition calculated. Each experiment can test 8 compounds at three concentrations (usually 10 μM, 1 μM, and 100 nM).
IC50 Determination Assay (8-Point)—
A more detailed assay with an extended range tests compounds over 8 concentrations depending on the pre-determined approximate IC50 value from the initial screen. […] The assay was conducted in 96 well plate with each well containing the same reaction mixture detailed above in the 3-point screen. The relative fluorescence is quantified into coumarin produced by using a standard curve of HMMC in triplicate on each plate. Results are normalized to the negative control wells and the IC50 is determined using a non-linear regression curve fit in Prism, version 5 (GraphPad, San Diego, Calif.).

hMGL = hMGL (Homo sapiens (Human), UniProt Q99685); experiment: Fluorescent assay for hMGL (AHMMCE substrate hydrolysis); details: E. coli lysate containing hMGL, read-out: hMGL Inhibition IC50
Description: as §1
Preparation of Human MAGL (hMAGL)
Fluorescent Assay Protocol for hMGL
This medium throughput assay involved a 96-well plate format in which hMGL activity was monitored by the hydrolysis of the substrate […] (AHMMCE) to form the fluorescent product, coumarin. […] Upon the addition of AHMMCE, the reaction was incubated at 25° C. for 120 min; fluorescence readings were taken every 15 min at 360 nm/460 nm (λexcitation/λemission) using a Synergy HT Plate Reader (Bio-Tek, Winooski, Vt.). […] External standards were used to convert relative fluorescence units to the amount of 4-methylcoumarin formed. All MGL assays were performed in triplicate for each inhibitor concentration, and IC50 values were calculated using Prizm software (GraphPad Software, Inc., San Diego, Calif.).

Rat ΔTM FAAH = Rat ΔTM FAAH (Rattus norvegicus (Rat), UniProt P97612); experiment: Fluorescent assay for rat ΔTM FAAH (AAMCA substrate); details: ΔTM rFAAH, AAMCA 20 μM; read-out: rFAAH Inhibition IC50
Description: Certain compounds were tested for their ABHD6 and dual ABHD6/MGL inhibitory activity, which is expressed as % of inhibition or IC50 values in Table 1. The percentage of inhibition describes the percentage by which the inhibitor reduces the velocity/rate of 2-AG hydrolysis by ABHD6, and MGL or AEA hydrolysis by FAAH. The IC50 is the concentration of the inhibitor, which results in 50% inhibition of the velocity/rate of 2-AG hydrolysis by ABHD6 or MGL. The IC50 is the concentration of the inhibitor, which results in 50% inhibition of the velocity/rate of AEA hydrolysis by FAAH. The lower the IC50 values, the higher its inhibitory activity. A detailed description of the methods used to test inhibitory activity of compounds is given below.
Example 79. Preparation of Transmembrane Domain-Deleted Rat FAAH (ΔTM rFAAH)
Rat ΔTM FAAH was expressed in E. coli cells and purified using the procedure disclosed by Patricelli et al. Biochemistry (1998) 37: 15177-15187.
Example 81. Fluorescent Assay Protocol for Rat ΔTM FAAH
The fluorescence reading at the 3 hour time point (linear enzyme kinetics) was used to calculate percent inhibition based on control assays without inhibitor present. All FAAH assays were performed in triplicate for each inhibitor concentration, and IC50 values determined using Prizm software (GraphPad Software, Inc.).

Sequence of hMGL (Q99685 whole entry): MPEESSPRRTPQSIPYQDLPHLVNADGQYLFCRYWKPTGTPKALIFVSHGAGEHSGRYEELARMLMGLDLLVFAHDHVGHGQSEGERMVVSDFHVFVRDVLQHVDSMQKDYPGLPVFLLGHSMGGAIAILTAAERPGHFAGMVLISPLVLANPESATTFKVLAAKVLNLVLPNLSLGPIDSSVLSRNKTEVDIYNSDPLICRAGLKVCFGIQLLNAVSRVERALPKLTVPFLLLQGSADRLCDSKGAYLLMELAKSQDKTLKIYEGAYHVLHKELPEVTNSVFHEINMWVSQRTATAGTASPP
Sequence of hABHD6 (Q9BV23 whole entry): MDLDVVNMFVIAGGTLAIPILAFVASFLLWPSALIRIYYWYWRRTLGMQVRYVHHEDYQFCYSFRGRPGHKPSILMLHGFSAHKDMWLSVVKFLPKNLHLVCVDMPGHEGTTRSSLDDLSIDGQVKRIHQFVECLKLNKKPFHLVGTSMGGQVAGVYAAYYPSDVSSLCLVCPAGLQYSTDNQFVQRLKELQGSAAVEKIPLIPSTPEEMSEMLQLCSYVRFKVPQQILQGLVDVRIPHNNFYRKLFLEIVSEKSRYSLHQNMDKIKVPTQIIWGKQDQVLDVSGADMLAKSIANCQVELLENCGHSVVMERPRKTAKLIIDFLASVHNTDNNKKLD
Sequence of Rat ΔTM FAAH (P97612 30-579): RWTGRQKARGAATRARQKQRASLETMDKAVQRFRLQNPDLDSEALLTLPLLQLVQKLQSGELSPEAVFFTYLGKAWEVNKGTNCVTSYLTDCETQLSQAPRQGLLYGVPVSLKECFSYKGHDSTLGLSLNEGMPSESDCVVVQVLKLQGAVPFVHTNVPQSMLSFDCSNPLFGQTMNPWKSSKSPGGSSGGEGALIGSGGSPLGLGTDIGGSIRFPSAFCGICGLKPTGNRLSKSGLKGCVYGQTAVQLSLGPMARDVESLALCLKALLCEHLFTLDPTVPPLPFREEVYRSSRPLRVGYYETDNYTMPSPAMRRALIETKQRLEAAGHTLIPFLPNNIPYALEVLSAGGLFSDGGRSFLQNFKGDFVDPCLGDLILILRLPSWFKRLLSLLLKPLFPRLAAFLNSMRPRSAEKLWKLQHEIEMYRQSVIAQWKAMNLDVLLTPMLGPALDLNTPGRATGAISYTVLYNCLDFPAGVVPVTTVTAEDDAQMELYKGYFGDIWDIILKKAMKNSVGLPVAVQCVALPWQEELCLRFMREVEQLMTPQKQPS

Row | SMILES | IC50 (hABHD6) [nM] | IC50 (hMGL) [nM] | IC50 (Rat ΔTM FAAH) [nM]
1 | O=C(OC(CF)CF)N1CCc2c(Br)cccc2C1 [Example 5, 1,3-Difluoropropan-2-yl 5-bromo-3,4-dihydroisoquinoline-2(1H)-carboxylate] | > 1000 | > 1000 | > 1000
2 | COc1cccc2c1CCN(C(=O)OC(C(F)(F)F)C(F)(F)F)C2 [Example 22, 1,1,1,3,3,3-Hexafluoropropan-2-yl 5-methoxy-3,4-dihydroisoquinoline-2(1H)-carboxylate] | 10 to 100 | > 1000 | > 1000
3 | COc1ccc2c(c1)CCN(C(=O)OC(C(F)(F)F)C(F)(F)F)C2 [Example 23, 1,1,1,3,3,3-Hexafluoropropan-2-yl 6-methoxy-3,4-dihydroisoquinoline-2(1H)-carboxylate] | 10 to 100 | > 1000 | > 1000
4 | O=C(OC(C(F)(F)F)C(F)(F)F)N1Cc2ccc(-c3ccccc3)cc2C1 [Example 25, 1,1,1,3,3,3-Hexafluoropropan-2-yl 5-phenylisoindoline-2-carboxylate] | 10 to 100 | > 1000 | > 1000
5 | O=C(OC(C(F)(F)F)C(F)(F)F)N1CCc2c(cccc2-c2ccccc2)C1 [Example 28, 1,1,1,3,3,3-Hexafluoropropan-2-yl 5-phenyl-3,4-dihydroisoquinoline-2(1H)-carboxylate] | 100 to 1000 | > 1000 | > 1000
6 | CN1CCN(c2ccc3c(c2)CN(C(=O)OC(C(F)(F)F)C(F)(F)F)C3)CC1 [Example 29, 1,1,1,3,3,3-Hexafluoropropan-2-yl 5-(4-methylpiperazin-1-yl)isoindoline-2-carboxylate] | 100 to 1000 | > 1000 | > 1000
7 | O=C(OC(C(F)(F)F)C(F)(F)F)N1Cc2ccc(N3CCCC3)cc2C1 [Example 30, 1,1,1,3,3,3-Hexafluoropropan-2-yl 5-(pyrrolidin-1-yl)isoindoline-2-carboxylate] | 10 to 100 | > 1000 | > 1000
8 | O=C(OC(C(F)(F)F)C(F)(F)F)N1Cc2ccc(N3CCS(=O)(=O)CC3)cc2C1 [Example 31, 1,1,1,3,3,3-Hexafluoropropan-2-yl 5-(1,1-dioxidothiomorpholino)isoindoline-2-carboxylate] | 10 to 100 | – | > 1000
9 | O=C(OC(C(F)(F)F)C(F)(F)F)N1Cc2ccc(N3CCOCC3)cc2C1 [Example 32, 1,1,1,3,3,3-Hexafluoropropan-2-yl 5-morpholinoisoindoline-2-carboxylate] | 10 to 100 | > 1000 | > 1000
10 | CC1(C)C2C(=O)N(OC(=O)N3CCc4c(Br)cccc4C3)C(=O)C21 (centres unmarked) [Example 35, 6,6-Dimethyl-2,4-dioxo-3-azabicyclo[3.1.0]hexan-3-yl 5-bromo-3,4-dihydroisoquinoline-2(1H)-carboxylate] | 10 to 100 | > 1000 | > 1000
11 | O=C1C2CC2C(=O)N1ON1CCc2c(Br)cccc2C1 (centres unmarked) [Example 37, 3-((5-Bromo-3,4-dihydroisoquinolin-2(1H)-yl)oxy)-3-azabicyclo[3.1.0]hexane-2,4-dione] | 100 to 1000 | > 1000 | > 1000
12 | COc1ccc2c(c1)CN(C(=O)ON1C(=O)C3C(C1=O)C3(C)C)C2 (centres unmarked) [Example 38, 6,6-Dimethyl-2,4-dioxo-3-azabicyclo[3.1.0]hexan-3-yl 5-methoxyisoindoline-2-carboxylate] | > 1000 | > 1000 | > 1000
13 | CC1(C)C2C(=O)N(OC(=O)N3Cc4ccc(N5CCOCC5)cc4C3)C(=O)C21 (centres unmarked) [Example 39, 6,6-Dimethyl-2,4-dioxo-3-azabicyclo[3.1.0]hexan-3-yl 5-morpholinoisoindoline-2-carboxylate] | 10 to 100 | > 1000 | > 1000
14 | O=C(O[C@H](CO)C(F)(F)F)N1CCc2c(Br)cccc2C1 [Example 40, (R)-1,1,1-trifluoro-3-hydroxypropan-2-yl 5-bromo-3,4-dihydroisoquinoline-2(1H)-carboxylate] | 10 to 100 | > 1000 | > 1000
